Data set [1] concerns the target T1, Bromodomain-containing protein 4 (Homo sapiens, UniProt O60885). Description: Inhibition of BRD4 in human PBMC assessed as reduction in LPS-induced IL-6 secretion incubated for 18 to 24 hrs by MSD assay.
Data set [2] concerns the target Bromodomain-containing protein 4 (Homo sapiens, UniProt O60885, Y390A). The experiment in a line: Displacement of Alexa Fluor 647 labelled ligand from recombinant human N-terminal 6His-tagged BRD4-BD1 Y390A mutant (1 to 477 residue) expressed in Escherichia coli incubated for 30 mins by TR-FRET assay. (Time-resolved FRET reads energy transfer from a long-lived donor to a nearby acceptor.)

For data set [3] the following is noted: rat, hepatocytes, 2 h, 0.5 µM.
For data set [4] the following is noted: dog, hepatocytes, 2 h, 0.5 µM.
The conditions of data set [5]: human, hepatocytes, 2 h, 0.5 µM.
Data set [6] concerns the target Cytochrome P450 3A4 (Homo sapiens, UniProt P08684). The experiment in a line: Inhibition of recombinant human CYP3A4 expressed in Escherichia coli using VG as probe substrate incubated for 15 to 60 mins by fluorometric assay. The format is ADME.
The target of data set [7] is T1, Bromodomain-containing protein 4. Description: Inhibition of BRD4 in human whole blood assessed as reduction in LPS-induced IL-6 secretion preincubated for 30 mins followed by LPS stimulation and measured after 24 hrs by MSD assay. The data set is classed as tissue-based.
For data set [8], the target named is Cytochrome P450 2C9 (Homo sapiens, UniProt P11712).
Description: Inhibition of recombinant human CYP2C9 expressed in Escherichia coli using FCA as substrate incubated for 15 to 60 mins by fluorometric assay
Data set [9] can be described thus: physchem. The following applies: FaSSIF, pH 6.5.
Description: Solubility of the compound in FaSSIF at pH 6.5 measured after 30 mins by HPLC analysis

Converted amounts (≈) assume the structure as drawn. Bounds are passed on as bounds.

Sequence of Cytochrome P450 2C9 (P11712 whole entry): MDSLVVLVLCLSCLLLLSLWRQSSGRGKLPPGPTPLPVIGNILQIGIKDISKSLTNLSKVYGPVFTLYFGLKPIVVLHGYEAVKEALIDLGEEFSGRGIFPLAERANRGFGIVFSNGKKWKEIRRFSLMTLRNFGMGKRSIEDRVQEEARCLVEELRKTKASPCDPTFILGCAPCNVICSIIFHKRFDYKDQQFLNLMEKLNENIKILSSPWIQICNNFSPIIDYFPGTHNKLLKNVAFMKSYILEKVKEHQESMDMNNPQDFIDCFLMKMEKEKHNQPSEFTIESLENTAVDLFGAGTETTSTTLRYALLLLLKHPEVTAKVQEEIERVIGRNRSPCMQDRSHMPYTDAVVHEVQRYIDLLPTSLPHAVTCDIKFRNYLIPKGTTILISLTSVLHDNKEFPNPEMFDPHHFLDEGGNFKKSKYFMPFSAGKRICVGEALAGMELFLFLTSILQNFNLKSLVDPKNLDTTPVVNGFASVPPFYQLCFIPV
Sequence of Cytochrome P450 3A4 (P08684 whole entry): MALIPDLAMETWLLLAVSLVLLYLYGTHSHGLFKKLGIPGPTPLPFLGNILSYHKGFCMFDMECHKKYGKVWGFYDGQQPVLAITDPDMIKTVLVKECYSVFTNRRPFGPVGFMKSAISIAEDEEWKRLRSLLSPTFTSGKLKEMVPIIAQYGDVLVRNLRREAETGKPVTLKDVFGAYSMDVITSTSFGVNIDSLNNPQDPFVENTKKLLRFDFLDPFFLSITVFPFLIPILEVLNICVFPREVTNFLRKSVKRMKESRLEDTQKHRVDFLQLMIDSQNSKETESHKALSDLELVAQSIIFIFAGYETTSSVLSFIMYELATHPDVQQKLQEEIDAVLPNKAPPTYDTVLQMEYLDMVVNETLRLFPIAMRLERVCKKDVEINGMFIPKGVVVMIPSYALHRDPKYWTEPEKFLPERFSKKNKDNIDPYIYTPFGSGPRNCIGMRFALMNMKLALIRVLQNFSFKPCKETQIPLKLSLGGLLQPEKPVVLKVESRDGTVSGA

Turning to `CCCC(C)n1c(=O)[nH]c2cnc3cc(-c4c(C)noc4C)c(OC)cc3c21` (stereo not drawn), the concentration for half-maximal inhibition (IC50) in data set [1] and in [2] was 126 nM in each case.
In the case of `COc1cc2c(cc1-c1c(C)noc1C)ncc1nc(C3CCOCC3)n(Cc3ccccn3)c12`, the IC50 in [1] is 251 nM; in [2] it was 63.1 nM.
For `COc1cc2c(cc1-c1c(C)noc1C)ncc1[nH]c(=O)n(Cc3ccccn3)c12` the same measures were 501 nM and 158 nM.
Consider `COc1cc2c(cc1-c1c(C)noc1C)ncc1[nH]c(=O)n(C(C)C3CCOCC3)c12` (racemic), for which the IC50 in data set [1] is 200 nM; in data set [2], 158 nM.
On to `CCNC(=O)C[C@@H]1N=C(c2ccc(Cl)cc2)c2cc(OC)ccc2-n2c(C)nnc21` [MOLIBRESIB], for which the CLint in [3] was less than 0.86 mL/min/g liver; in [4], less than 1.7 mL/min/g liver; in data set [5], less than 0.86 mL/min/g liver.
As to `COCCNc1nc2cnc3cc(-c4c(C)noc4C)c(OC)cc3c2n1[C@H](C)c1ccccn1`, the IC50 was 7900 nM in [6]; 25.1 nM in data set [1]; 158 nM in data set [7]; 12.6 nM in [2]; 7900 nM in [8].
With `COc1cc2c(cc1-c1c(C)noc1C)ncc1nc(N)n(Cc3ccccn3)c12`, the results for the concentration for half-maximal inhibition (IC50) in data set [1] and in data set [2] were 158 nM and 39.8 nM, respectively.
On the same counts, the results for `COc1cc2c(cc1-c1c(C)noc1C)ncc1nc(C)n(Cc3ccccn3)c12` are 39.8 nM and 39.8 nM.
For `COc1cc2c(cc1-c1c(C)noc1C)ncc1nc(C(C)C)n(Cc3ccccn3)c12` the same measures were 158 nM and 39.8 nM.
As for `CCCc1nc2cnc3cc(-c4c(C)noc4C)c(OC)cc3c2n1Cc1ccccn1`, the IC50 in [1] is 126 nM; in data set [2], 25.1 nM.
For the molecule `COCCNc1nc2cnc3cc(-c4c(C)noc4C)c(OC)cc3c2n1Cc1ccccn1`, the 50% inhibitory concentration (IC50) in data set [6] was 15800 nM; in data set [1], 100 nM; in data set [7], 398 nM; in data set [2] it was 31.6 nM; in data set [8] it was 31600 nM.
As to `COc1cc2c(cc1-c1c(C)noc1C)ncc1[nH]c(=O)n(C3CCNCC3)c12`, the IC50 in data set [1] is 15800 nM; in data set [2] it was 2000 nM.
With `COc1cc2c(cc1-c1c(C)noc1C)ncc1[nH]c(=O)n([C@H](C)c3ccccn3)c12`, the results for the CLint in data set [3], in data set [4] and in [5] were less than 0.86 mL/min/g liver, 9.8 mL/min/g liver and less than 0.86 mL/min/g liver, respectively. This molecule showed a solubility at 0.5 h in data set [9] of 66 µg/mL (≈ 159 µM).
Consider `COc1cc2c(cc1-c1c(C)noc1C)ncc1nc(N3CCOCC3)n(CC3CCOCC3)c12`, for which the IC50 in data set [1] was 25.1 nM; in data set [7], 251 nM; in data set [2], 39.8 nM.
For `COC[C@H](C)n1c(C2CCOCC2)nc2cnc3cc(-c4c(C)noc4C)c(OC)cc3c21` the same measures were 501 nM, 316 nM and 158 nM.
For the molecule `COCC(C)n1c(C2CCOCC2)nc2cnc3cc(-c4c(C)noc4C)c(OC)cc3c21` (racemic), the 50% inhibitory concentration (IC50) in [1] is 126 nM; in data set [7], 398 nM; in [2], 100 nM.
With `COc1cc2c(cc1-c1c(C)noc1C)ncc1[nH]c(=O)n(CC3CCOCC3)c12`, the half-inhibitory concentration (IC50) is 200 nM in [1] and 100 nM in data set [2].
For `COc1cc2c(cc1-c1c(C)noc1C)ncc1[nH]c(=O)n(CC3CCOC3)c12` (racemic) the same measures were 3980 nM and 631 nM.
Turning to `COCc1nc2cnc3cc(-c4c(C)noc4C)c(OC)cc3c2n1C(C)COC` (racemic), the IC50 was 631 nM in data set [1] and 200 nM in data set [2].
On the same counts, the results for `COc1cc2c(cc1-c1c(C)noc1C)ncc1[nH]c(=O)n(C3CCOCC3)c12` are 1580 nM and 1580 nM.
On the same counts, the results for `COCc1nc2cnc3cc(-c4c(C)noc4C)c(OC)cc3c2n1CC1CCOCC1` are 398 nM and 79.4 nM.
In the case of `COc1cc2c(cc1-c1c(C)noc1C)ncc1nc(C3CCOCC3)n(C(C)C3CCOCC3)c12` (stereo not drawn), the IC50 in data set [1] is 100 nM; in data set [7], 200 nM; in data set [2], 31.6 nM.
For the molecule `COc1cc2c(cc1-c1c(C)noc1C)ncc1nc(C3CCOCC3)n(CC3CC3)c12`, the concentration for half-maximal inhibition (IC50) was 316 nM in [1], 2000 nM in data set [7] and 126 nM in [2].
For `COc1cc2c(cc1-c1c(C)noc1C)ncc1[nH]c(=O)n(C(C)C)c12`, the values for the IC50 in data set [1] and in data set [2] were 3160 nM and 1260 nM, respectively.
On the same counts, the results for `COc1cc2c(cc1-c1c(C)noc1C)ncc1[nH]c(=O)n(CC3CC3)c12` are 398 nM and 631 nM.
For `CCc1nc2cnc3cc(-c4c(C)noc4C)c(OC)cc3c2n1Cc1ccccn1` the same measures were 158 nM and 31.6 nM.
For `COc1cc2c(cc1-c1c(C)noc1C)ncc1[nH]c(=O)n(CC3CCN(C)CC3)c12` the same measures were 3160 nM and 1260 nM.
Turning to `COCC(C)n1c(=O)[nH]c2cnc3cc(-c4c(C)noc4C)c(OC)cc3c21` (racemic), the IC50 in data set [1] is 1580 nM; in data set [2], 631 nM.
For `COc1cc2c(cc1-c1c(C)noc1C)ncc1[nH]c(=O)n(CC3CCCOC3)c12` (racemic) the same measures were 1260 nM and 251 nM.
For `COc1cc2c(cc1-c1c(C)noc1C)ncc1[nH]c(=O)n(CC(C)C)c12` the same measures were 1000 nM and 794 nM.
As for `COc1cc2c(cc1-c1c(C)noc1C)ncc1nc(N(C)C)n(CC3CCOCC3)c12`, the IC50 in data set [6] was 10000 nM; in data set [1], 39.8 nM; in data set [7] it was 251 nM; in data set [2], 31.6 nM; in data set [8] it was 1300 nM.
Turning to `COCc1nc2cnc3cc(-c4c(C)noc4C)c(OC)cc3c2n1Cc1ccccn1`, the IC50 in data set [1] was 398 nM; in data set [2] it was 63.1 nM.
For `COc1cc2c(cc1-c1c(C)noc1C)ncc1[nH]c(=O)n(CCN(C)C)c12` the same measures were 1580 nM and 794 nM.

The IC50 is the midpoint of a concentration-inhibition curve. What is called solubility is the dissolved amount per volume that the medium holds. The low end stands for a poorly soluble substance, the high end for a readily soluble substance.

The record behind these values is ChEMBL document CHEMBL4842350, “Discovery of a Novel Bromodomain and Extra Terminal Domain (BET) Protein Inhibitor, I-BET282E, Suitable for Clinical Progression” (J Med Chem, 2021).
